By AUC(0-t) is commonly meant exposure summed from dosing to a finite time, without extrapolation to infinity. The low end stands for low exposure, the high end for high exposure. A word on the IC50: it is the concentration that gives 50% inhibition.

The source of these data is patent publication US20250171417A1, “HETEROCYCLIC DERIVATIVE, AND COMPOSITION AND PHARMACEUTICAL USE THEREOF” (Xizang Haisco Pharmaceutical Co., Ltd., priority 2021, published 2025).

Series [1] is described as follows: Pharmacokinetic test in rats. The series is classed as in vivo. Conditions: rat, plasma, po, male SD rats; for bioavailability: i.g. 5 mg/kg vs intravenous 2 mg/kg; for AUC(0-t): i.g. 5 mg/kg. How it is done: Test objective: In this experiment, a single dose of each test compound was administered to SD rats intravenously and intragastrically, and the concentrations of the test compounds in plasma of rats were measured to evaluate the pharmacokinetic characteristics of the test compounds in rats.
Experimental animals: male SD rats, 200-250 g, 6-8 weeks old, 6 rats/compound, purchased from Chengdu Ddossy Experimental Animals Co., Ltd.
Experimental method: on the day of the test, 6 SD rats were randomly grouped according to their body weight; the animals were fasted with water available for 12 to 14 hours one day before the administration of a test compound, and were fed 4 hours after the administration.
Sampling: Before and after the administration, 0.1 mL of blood samples were drawn from the orbits of the animals under isoflurane anesthesia, and placed in an EDTAK2 centrifuge tube. Centrifugation was carried out at 5000 rpm at 4° C. for 10 min, and the plasma was collected.
Time points for plasma collection in IV&PO group: 0, 5 min, 15 min, 30 min, 1 h, 2 h, 4 h, 6 h, 8 h, and 24 h.
Before analysis and detection, all samples were stored at −60° C. The samples were analyzed quantitatively by LC-MS/MS.

The subject of series [2] is Prostate cancer cells 22RV1. Briefly: Experiment on inhibiting 22RV1 cell proliferation (CellTiter-Glo, 7 days). In kind it is cell-based. Conditions: Homo sapiens, 168 h, 22RV1 cells, 7 days incubation, read-out: IC50 values for inhibition of 22RVI cells. In outline:
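22RV1 cells at 2000/well in 1% charcoal-stripped-FBS phenol red-free medium, treated next day with compound for 7 days at 37 °C, 5% CO2. Viability by CellTiter-Glo luminescence; inhibition relative to DMSO vehicle, IC50 from dose-response fit.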
On the technique in general: ATP-based viability assays read luminescence as a measure of living cells.

The mark [3] stands for this setting: cells with nM printed beside the value.
[4] abbreviates: cells without a unit of their own (μM).

Where two headings read alike, the source gives them in different places.

`CC(C)(C(=O)Nc1ccc(C#N)cc1Cl)n1cc(C#CC2CN(c3ccc4c(c3)C(=O)N(C3CCC(=O)NC3=O)C4=O)C2)cn1` (stereo not shown) [Compound 20, N-(2-chloro-4-cyanophenyl)-2-(4-((1-(2-(2,6-dioxopiperidin-3-yl)-1,3-dioxoisoindolin-5-yl)azetidin-3-yl)ethynyl)-1H-pyrazol-1-yl)-2-methylpropanamide]: in series [1], the bioavailability amounted to 62 ± 23% and the AUC(0-t) came out at 16 ± 5.82 µg·h/mL. Also, the IC50 in series [2] (setting [3]) was less than 50 nM.

Take `Cc1cc(NC(=O)C(C)(C)n2cc(C#CC3CN(c4ccc5c(c4)C(=O)N(C4CCC(=O)NC4=O)C5=O)C3)cn2)ccc1C#N` (stereo not shown) [Compound 13, N-(4-cyano-3-methylphenyl)-2-(4-((1-(2-(2,6-dioxopiperidin-3-yl)-1,3-dioxoisoindolin-5-yl)azetidin-3-yl)ethynyl)-1H-pyrazol-1-yl)-2-methylpropanamide]: in series [1], the bioavailability was found to be 77.8 ± 8.5% and the AUC(0-t) was found to be 57.8 ± 6.3 µg·h/mL. Further, the concentration for half-maximal inhibition (IC50) in series [2] (setting [4]) was less than 1000 nM.

Turning to `CC(C)(C(=O)Nc1ccc(C#N)c2c1CCC2)n1cc(C#CC2CN(c3ccc4c(c3)C(=O)N(C3CCC(=O)NC3=O)C4=O)C2)cn1` (stereo not shown) [Compound 141, N-(7-cyano-2,3-dihydro-1H-inden-4-yl)-2-(4-((1-(2-(2,6-dioxopiperidin-3-yl)-1,3-dioxoisoindolin-5-yl)azetidin-3-yl)ethynyl)-1H-pyrazol-1-yl)-2-methylpropanamide], in series [1], the bioavailability was 76.1 ± 716% and the AUC(0-t) is 15.7 ± 3.2 µg·h/mL. Further, in series [2] (setting [3]), the IC50 was less than 50 nM.

Molecule `CC(C)(C(=O)Nc1ccc(C(F)(F)F)cc1F)n1cc(C#CC2CN(c3ccc4c(c3)C(=O)N(C3CCC(=O)NC3=O)C4=O)C2)cn1` (stereo not shown) [Compound 31, N-(2-fluoro-4-(trifluoromethyl)phenyl)-2-(4-((1-(2-(2,6-dioxopiperidin-3-yl)-1,3-dioxoisoindolin-5-yl)azetidin-3-yl)ethynyl)-1H-pyrazol-1-yl)-2-methylpropanamide] gave an exposure AUC(0-t) in series [1] of 39.7 ± 1.89 µg·h/mL. Besides, the IC50 in series [2] (setting [3]) is less than 100 nM.

Regarding `CC(C)(C(=O)Nc1ccc(C#N)c(Cl)c1)n1cc(C#CC2CN(c3ccc4c(c3)C(=O)N(C3CCC(=O)NC3=O)C4=O)C2)cn1` (stereo not shown) [Compound 12, N-(3-chloro-4-cyanophenyl)-2-(4-((1-(2-(2,6-dioxopiperidin-3-yl)-1,3-dioxoisoindolin-5-yl)azetidin-3-yl)ethynyl)-1H-pyrazol-1-yl)-2-methylpropanamide], in series [1], the bioavailability amounted to 73 ± 7.2% and the AUC(0-t) was found to be 70.5 ± 6.98 µg·h/mL. For the same molecule, the IC50 in series [2] (setting [3]) is less than 50 nM.

As to `O=C1CCC(N2C(=O)c3cc(F)c(N4CC(C#Cc5cnn(C6(C(=O)Nc7ccc(C(F)(F)F)cc7Cl)CCC6)c5)C4)cc3C2=O)C(=O)N1` (stereo not shown) [Compound 33], in series [1], the bioavailability was 55.3 ± 5.4% and the AUC(0-t) amounted to 9.39 ± 0.916 µg·h/mL. For the same molecule, the IC50 in series [2] (setting [4]) is less than 1000 nM.

Consider `CC(C)(C(=O)Nc1ccc(C#N)c(C(F)(F)F)c1)n1cc(C#CC2CN(c3ccc4c(c3)CN(C3CCC(=O)NC3=O)C4=O)C2)cn1` (stereo not shown) [Compound 6], for which, in series [1], the bioavailability was determined as 47.3 ± 16% and the AUC(0-t) is 8.96 ± 2.94 µg·h/mL. In series [2] (setting [4]), the IC50 was less than 1000 nM.

Turning to `CC(C)(C(=O)Nc1ccc(C#N)c(N2CCCC2)c1)n1cc(C#CC2CN(c3ccc4c(c3)C(=O)N(C3CCC(=O)NC3=O)C4=O)C2)cn1` (stereo not shown) [Compound 38, N-(4-cyano-3-(pyrrolidin-1-yl)phenyl)-2-(4-((1-(2-(2,6-dioxopiperidin-3-yl)-1,3-dioxoisoindolin-5-yl)azetidin-3-yl)ethynyl)-1H-pyrazol-1-yl)-2-methylpropanamide], in series [1], the bioavailability came out at 43.5 ± 7.3% and the AUC(0-t) is 7.2 ± 1.21 µg·h/mL. For the same molecule, in series [2] (setting [3]), the IC50 was less than 50 nM.

For the molecule `CC(C)(C(=O)Nc1ccc(C#N)c(Br)c1)n1cc(C#CC2CN(c3ccc4c(c3)C(=O)N(C3CCC(=O)NC3=O)C4=O)C2)cn1` (stereo not shown) [Compound 37, N-(3-bromo-4-cyanophenyl)-2-(4-((1-(2-(2,6-dioxopiperidin-3-yl)-1,3-dioxoisoindolin-5-yl)azetidin-3-yl)ethynyl)-1H-pyrazol-1-yl)-2-methylpropanamide], in series [1], the bioavailability is 69.8 ± 28% and the area under the curve AUC(0-t) came to 55.8 ± 22.6 µg·h/mL. Further, the IC50 in series [2] (setting [3]) is less than 50 nM.

Turning to `N#Cc1ccc(NC(=O)Cn2cc(C#CC3CN(c4ccc5c(c4)C(=O)N(C4CCC(=O)NC4=O)C5=O)C3)cn2)cc1C(F)(F)F` (stereo not shown) [Compound 47, N-(4-cyano-3-(trifluoromethyl)phenyl)-2-(4-((1-(2-(2,6-dioxopiperidin-3-yl)-1,3-dioxoisoindolin-S-yl)azetidin-3-yl)ethynyl)-1H-pyrazol-1-yl) acetamide], in series [1], the bioavailability was determined as 37.7 ± 13% and the AUC(0-t) was 11.3 ± 3.88 µg·h/mL. Further, in series [2] (setting [3]), the IC50 is less than 50 nM.

As to `CC(C)(C(=O)Nc1ccc(C(F)(F)F)cc1-n1cccc1)n1cc(C#CC2CN(c3ccc4c(c3)C(=O)N(C3CCC(=O)NC3=O)C4=O)C2)cn1` (stereo not shown) [Compound 133, N-(2-(1H-pyrrol-1-yl)-4-(trifluoromethyl)phenyl)-2-(4-((1-(2-(2,6-dioxopiperidin-3-yl)-1,3-dioxoisoindolin-5-yl)azetidin-3-yl)ethynyl)-1H-pyrazol-1-yl)-2-methylpropanamide], in series [1], the bioavailability is 70.3 ± 7.9% and the AUC(0-t) was found to be 8.29 ± 0.935 µg·h/mL. Also, the IC50 in series [2] (setting [3]) is less than 100 nM.

Consider `CC(C)(C(=O)Nc1ccc(C(F)(F)F)cc1C#CC1CC1)n1cc(C#CC2CN(c3ccc4c(c3)C(=O)N(C3CCC(=O)NC3=O)C4=O)C2)cn1` (stereo not shown) [Compound 116, N-(2-(cyclopropylethynyl)-4-(trifluoromethyl)phenyl)-2-(4-((1-(2-(2,6-dioxopiperidin-3-yl)-1,3-dioxoisoindolin-5-yl)azetidin-3-yl)ethynyl)-1H-pyrazol-1-yl)-2-methylpropanamide], for which the half-inhibitory concentration (IC50) in series [2] (setting [3]) is less than 50 nM.

For `CC(C)(C(=O)Nc1ccc(C#N)cc1C1CC1)n1cc(C#CC2CN(c3ccc4c(c3)C(=O)N(C3CCC(=O)NC3=O)C4=O)C2)c(C#N)n1` (stereo not shown) [Compound 201, N-(4-cyano-2-cyclopropylphenyl)-2-(3-cyano-4-((1-(2-(2,6-dioxopiperidin-3-yl)-1,3-dioxoisoindolin-5-yl)azetidin-3-yl)ethynyl)-1H-pyrazol-1-yl)-2-methylpropanamide], in series [2] (setting [3]), the IC50 is less than 100 nM.
